Where two headings read alike, the source gives them in different places.
Assays:
plasmopora viticola = conditions: at high dose; cited from earlier work
cucumber gray mold = test: Activity in vitro (96-well, High Through Put): inhibition rate against cucumber gray mold; format: cell-based; conditions: for inhibition at 0.3 µg/mL: 0.3 mg/L; for inhibition at 0.9 µg/mL: 0.9 mg/L; for inhibition at 25 µg/mL: dose 25 mg/L
In short: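 Compound in acetone, methanol or DMF was combined with pathogen suspension under sterile conditions and held in a constant-temperature box. After 24 hours germination or growth was scored by eye against an untreated control to give the inhibition rate.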

rice blast = test: microbe, parasite or virus in culture; format: cell-based; conditions: Pyricularia oryzae; for inhibition at 0.03 µg/mL: read-out: the inhibition rate against rice blast (%) 0.03 mg/L; for inhibition at 0.1 µg/mL: read-out: the inhibition rate against rice blast (%) 0.1 mg/L; for inhibition at 0.3 µg/mL: read-out: the inhibition rate against rice blast (%) 0.3 mg/L; for inhibition at 25 µg/mL: read-out: inhibition rate against rice blast
cucumber downy mildew = test: Protectant activity in vivo (whole plant) against cucumber downy mildew; conditions: Cucumis sativus, 168 h; for pest or weed control at 12.5 µg/mL: 12.5 mg/L; for pest or weed control at 400 µg/mL: dose 400 mg/L
In short: (§1)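 Compound stock in organic solvent (≤5% v/v) diluted in water with 0.1% Tween-80 and sprayed onto whole host plants. Fungal inoculation 24 h later; humidity chamber then greenhouse as the pathogen requires. Activity rated visually, usually after 7 days.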

corn rust = test: Protectant activity in vivo (whole plant) against corn rust; conditions: Zea mays, 168 h; for pest or weed control at 6.25 µg/mL: 6.25 mg/L; for pest or weed control at 25 µg/mL: 25 mg/L; for pest or weed control at 100 µg/mL: 100 mg/L
In short: as §1

wheat powdery mildew = test: Protectant activity in vivo (whole plant) against wheat powdery mildew; conditions: Triticum aestivum, 168 h; for pest or weed control at 400 µg/mL: dose 400 mg/L
Procedure: The method is as followed: The whole plant is used in this test. The compound is dissolved in a proper solvent to get mother solution. The proper solvent is selected from acetone, methanol, DMF and so on according to their dissolving capability to the sample. The volume rate of solvent and testing solution (v/v) is equal to or less than 5%. The mother solution is diluted with water containing 0.1% tween-80 to get the testing solution whose concentration is designed. The testing solution is sprayed to the host plant by a special plant sprayer. The plant is inoculated with fungus after 24 hours. According to the infecting characteristic of fungus, the plant is stored in a humidity chamber and then transferred into greenhouse after infection is finished. And the other plants are placed in greenhouse directly. The activity of compound is obtained by eyeballing after 7 days in common.

blast of rice = conditions: at 500 ppm; cited from earlier work
canker of citrus fruit = conditions: at 500 ppm; cited from earlier work
pear scab = conditions: in vivo; cited from earlier work
[1] = read-out: the inhibition rate against cucumber gray mold (%)
[2] = 2.8 mg/L, read-out: the inhibition rate against cucumber gray mold (%)
[3] = 8.3 mg/L, read-out: the inhibition rate against cucumber gray mold (%)
[4] = 25 mg/L, read-out: the protectant activity (%) against cucumber downy mildew
[5] = 50 mg/L, read-out: the protectant activity (%) against cucumber downy mildew
[6] = 100 mg/L, read-out: the protectant activity (%) against cucumber downy mildew
[7] = dose 25 mg/L, read-out: protectant activity against cucumber downy mildew in vivo
[8] = dose 50 mg/L, read-out: protectant activity against cucumber downy mildew in vivo
[9] = dose 100 mg/L, read-out: protectant activity against cucumber downy mildew in vivo
[10] = 400 mg/L, read-out: the protectant activity (%) against corn rust
[11] = dose 400 mg/L, read-out: protectant activity against corn rust in vivo
[12] = in vitro, dose 8.3 mg/L, read-out: inhibition rate against cucumber gray mold

N#Cc1c(Cl)c(Cl)c(C#N)c(Nc2ccccc2)c1Cl [KC15]
activity on relevant diseases such as plasmopora viticola (plasmopora viticola): some activity | inhibition at 0.3 µg/mL (cucumber gray mold): 0% | inhibition at 0.9 µg/mL (cucumber gray mold; [1]): 0% | inhibition at 2.8 µg/mL (cucumber gray mold; [2]): 0% | inhibition at 8.3 µg/mL (cucumber gray mold; [3]): 0% | inhibition at 25 µg/mL (cucumber gray mold; in vitro): 0% | inhibition at 0.03 µg/mL (rice blast): 0% | inhibition at 0.1 µg/mL (rice blast): 0% | inhibition at 0.3 µg/mL (rice blast): 0% | pest or weed control at 12.5 µg/mL (cucumber downy mildew): 0% | pest or weed control at 25 µg/mL (cucumber downy mildew; [4]): 0% | pest or weed control at 50 µg/mL (cucumber downy mildew; [5]): 10% | pest or weed control at 100 µg/mL (cucumber downy mildew; [6]): 20% | pest or weed control at 25 µg/mL (cucumber downy mildew; [7]): 0% | pest or weed control at 50 µg/mL (cucumber downy mildew; [8]): 10% | pest or weed control at 100 µg/mL (cucumber downy mildew; [9]): 20% | pest or weed control at 6.25 µg/mL (corn rust): 0% | pest or weed control at 25 µg/mL (corn rust): 0% | pest or weed control at 100 µg/mL (corn rust): 0% | pest or weed control at 400 µg/mL (corn rust; [10]): 0% | pest or weed control at 400 µg/mL (corn rust; [11]): 0% | pest or weed control at 400 µg/mL (wheat powdery mildew): 0%

N#Cc1c(F)c(F)c(Nc2ccc(Cl)cc2)c(C#N)c1F [KC8]
bacteriostatic diameter against blast of rice (blast of rice): 10.2 mm | inhibition at 0.3 µg/mL (cucumber gray mold): 0% | inhibition at 0.9 µg/mL (cucumber gray mold; [1]): 0% | inhibition at 2.8 µg/mL (cucumber gray mold; [2]): 0% | inhibition at 8.3 µg/mL (cucumber gray mold; [3]): 0% | inhibition at 8.3 µg/mL (cucumber gray mold; [12]): 0% | bacteriostatic diameter against canker of citrus fruit (canker of citrus fruit): 0 mm | inhibition at 0.03 µg/mL (rice blast): 0% | inhibition at 0.1 µg/mL (rice blast): 0% | inhibition at 0.3 µg/mL (rice blast): 0% | control against pear scab (pear scab): 90% | pest or weed control at 12.5 µg/mL (cucumber downy mildew): 0% | pest or weed control at 25 µg/mL (cucumber downy mildew; [4]): 0% | pest or weed control at 50 µg/mL (cucumber downy mildew; [5]): 0% | pest or weed control at 100 µg/mL (cucumber downy mildew; [6]): 0% | pest or weed control at 400 µg/mL (cucumber downy mildew): 0% | pest or weed control at 6.25 µg/mL (corn rust): 0% | pest or weed control at 25 µg/mL (corn rust): 0% | pest or weed control at 100 µg/mL (corn rust): 0% | pest or weed control at 400 µg/mL (corn rust; [10]): 0% | pest or weed control at 400 µg/mL (corn rust; [11]): 0% | pest or weed control at 400 µg/mL (wheat powdery mildew): 0%

N#Cc1c(F)c(F)c(Nc2ccccc2)c(C#N)c1F [KC7]
bacteriostatic diameter against blast of rice (blast of rice): 22.5 mm | inhibition at 0.3 µg/mL (cucumber gray mold): 0% | inhibition at 0.9 µg/mL (cucumber gray mold; [1]): 0% | inhibition at 2.8 µg/mL (cucumber gray mold; [2]): 0% | inhibition at 8.3 µg/mL (cucumber gray mold; [3]): 0% | inhibition at 8.3 µg/mL (cucumber gray mold; [12]): 0% | bacteriostatic diameter against canker of citrus fruit (canker of citrus fruit): 13.8 mm | inhibition at 0.03 µg/mL (rice blast): 0% | inhibition at 0.1 µg/mL (rice blast): 0% | inhibition at 0.3 µg/mL (rice blast): 0% | control against pear scab (pear scab): 100% | pest or weed control at 12.5 µg/mL (cucumber downy mildew): 0% | pest or weed control at 25 µg/mL (cucumber downy mildew; [4]): 0% | pest or weed control at 50 µg/mL (cucumber downy mildew; [5]): 10% | pest or weed control at 100 µg/mL (cucumber downy mildew; [6]): 20% | pest or weed control at 25 µg/mL (cucumber downy mildew; [7]): 0% | pest or weed control at 50 µg/mL (cucumber downy mildew; [8]): 10% | pest or weed control at 100 µg/mL (cucumber downy mildew; [9]): 20% | pest or weed control at 400 µg/mL (wheat powdery mildew): 0%

N#Cc1c(Cl)c(Cl)c(Nc2ccccc2)c(Cl)c1C#N [KC14]
activity on relevant diseases such as plasmopora viticola (plasmopora viticola): some activity | inhibition at 0.3 µg/mL (cucumber gray mold): 0% | inhibition at 0.9 µg/mL (cucumber gray mold; [1]): 0% | inhibition at 2.8 µg/mL (cucumber gray mold; [2]): 0% | inhibition at 8.3 µg/mL (cucumber gray mold; [3]): 0% | inhibition at 25 µg/mL (cucumber gray mold; in vitro): 0% | inhibition at 0.03 µg/mL (rice blast): 0% | inhibition at 0.1 µg/mL (rice blast): 0% | inhibition at 0.3 µg/mL (rice blast): 0% | pest or weed control at 12.5 µg/mL (cucumber downy mildew): 0% | pest or weed control at 25 µg/mL (cucumber downy mildew; [4]): 0% | pest or weed control at 50 µg/mL (cucumber downy mildew; [5]): 0% | pest or weed control at 100 µg/mL (cucumber downy mildew; [6]): 0% | pest or weed control at 100 µg/mL (cucumber downy mildew; [9]): 0% | pest or weed control at 6.25 µg/mL (corn rust): 0% | pest or weed control at 25 µg/mL (corn rust): 0% | pest or weed control at 100 µg/mL (corn rust): 0% | pest or weed control at 400 µg/mL (corn rust; [10]): 0% | pest or weed control at 400 µg/mL (corn rust; [11]): 0% | pest or weed control at 100 µg/mL (wheat powdery mildew; dose 100 mg/L): 0% | pest or weed control at 400 µg/mL (wheat powdery mildew): 30%

Cc1ccc(Nc2c(Cl)c(Cl)c(C#N)c(Cl)c2C#N)cc1 [KC3]
inhibition at 0.3 µg/mL (cucumber gray mold): 0% | inhibition at 0.9 µg/mL (cucumber gray mold; [1]): 0% | inhibition at 2.8 µg/mL (cucumber gray mold; [2]): 0% | inhibition at 8.3 µg/mL (cucumber gray mold; [3]): 0% | inhibition at 25 µg/mL (cucumber gray mold; in vitro): 0% | inhibition at 25 µg/mL (rice blast): 0% | inhibition at 0.03 µg/mL (rice blast): 0% | inhibition at 0.1 µg/mL (rice blast): 0% | inhibition at 0.3 µg/mL (rice blast): 0% | pest or weed control at 12.5 µg/mL (cucumber downy mildew): 0% | pest or weed control at 25 µg/mL (cucumber downy mildew; [4]): 0% | pest or weed control at 50 µg/mL (cucumber downy mildew; [5]): 0% | pest or weed control at 100 µg/mL (cucumber downy mildew; [6]): 0% | pest or weed control at 400 µg/mL (cucumber downy mildew): 0% | pest or weed control at 6.25 µg/mL (corn rust): 0% | pest or weed control at 25 µg/mL (corn rust): 0% | pest or weed control at 100 µg/mL (corn rust): 0% | pest or weed control at 400 µg/mL (corn rust; [10]): 0% | pest or weed control at 400 µg/mL (corn rust; [11]): 0% | pest or weed control at 400 µg/mL (wheat powdery mildew): 0%

N#Cc1c(F)c(F)c(Nc2ccc(Cl)c(Cl)c2)c(C#N)c1F [KC12]
bacteriostatic diameter against blast of rice (blast of rice): 15.5 mm | inhibition at 0.3 µg/mL (cucumber gray mold): 0% | inhibition at 0.9 µg/mL (cucumber gray mold; [1]): 0% | inhibition at 2.8 µg/mL (cucumber gray mold; [2]): 0% | inhibition at 8.3 µg/mL (cucumber gray mold; [3]): 80% | inhibition at 2.8 µg/mL (cucumber gray mold; in vitro, dose 2.8 mg/L, read-out: inhibition rate against cucumber gray mold): 0% | bacteriostatic diameter against canker of citrus fruit (canker of citrus fruit): 0 mm | inhibition at 25 µg/mL (rice blast): 0% | inhibition at 0.03 µg/mL (rice blast): 0% | inhibition at 0.1 µg/mL (rice blast): 0% | inhibition at 0.3 µg/mL (rice blast): 0% | pest or weed control at 12.5 µg/mL (cucumber downy mildew): 0% | pest or weed control at 25 µg/mL (cucumber downy mildew; [4]): 0% | pest or weed control at 50 µg/mL (cucumber downy mildew; [5]): 0% | pest or weed control at 100 µg/mL (cucumber downy mildew; [6]): 0% | pest or weed control at 100 µg/mL (cucumber downy mildew; [9]): 20% | pest or weed control at 6.25 µg/mL (corn rust): 0% | pest or weed control at 25 µg/mL (corn rust): 0% | pest or weed control at 100 µg/mL (corn rust): 0% | pest or weed control at 400 µg/mL (corn rust; [10]): 0% | pest or weed control at 400 µg/mL (corn rust; [11]): 0% | pest or weed control at 400 µg/mL (wheat powdery mildew): 0%

N#Cc1c(Cl)c(Cl)c(Nc2ccccc2)c(C#N)c1Cl [KC1]
activity on relevant diseases such as plasmopora viticola (plasmopora viticola): some activity | inhibition at 0.3 µg/mL (cucumber gray mold): 0% | inhibition at 0.9 µg/mL (cucumber gray mold; [1]): 0% | inhibition at 2.8 µg/mL (cucumber gray mold; [2]): 0% | inhibition at 8.3 µg/mL (cucumber gray mold; [3]): 0% | inhibition at 25 µg/mL (cucumber gray mold; in vitro): 0% | inhibition at 25 µg/mL (rice blast): 0% | inhibition at 0.03 µg/mL (rice blast): 0% | inhibition at 0.1 µg/mL (rice blast): 0% | inhibition at 0.3 µg/mL (rice blast): 0% | pest or weed control at 12.5 µg/mL (cucumber downy mildew): 0% | pest or weed control at 25 µg/mL (cucumber downy mildew; [4]): 0% | pest or weed control at 50 µg/mL (cucumber downy mildew; [5]): 0% | pest or weed control at 100 µg/mL (cucumber downy mildew; [6]): 0% | pest or weed control at 400 µg/mL (cucumber downy mildew): 0% | pest or weed control at 6.25 µg/mL (corn rust): 0% | pest or weed control at 25 µg/mL (corn rust): 0% | pest or weed control at 100 µg/mL (corn rust): 0% | pest or weed control at 400 µg/mL (corn rust; [10]): 0% | pest or weed control at 400 µg/mL (corn rust; [11]): 0% | pest or weed control at 400 µg/mL (wheat powdery mildew): 0%

Reference: patent US8937072B2, “Substituted cyanoaniline compounds, preparation and use thereof” (Sinochem Corporation, priority 2011, dated 2015)
